Reference: patent publication US20090105320A1, “Biodal Compositions Containing 1,2-Benzisothiazolin-3-One And 1,2-Dibromo-2,4-Dicyanobutane” (priority 2006, published 2009)
Where two headings read alike, the source gives them in different places.

Key:
[1] = Solubilities of biocidal active substances in different solvents at 25° C.; format: physicochemical
[2] = Storage stability (appearance of solution) in different solvents at −5° C., +20° C. and +50° C., 14 days' storage; format: physicochemical
[3] = cited from earlier work
[4] = in Polyethylene glycol 300, 25° C.
[5] = in Polyethylene glycol 400/glycerol 3:1, 25° C.
[6] = in TEGDME (tetraethylene glycol dimethyl ether), 25° C.
[7] = in Butyl polyglycol, 14 days' storage
[8] = in Diethylene glycol, 14 days' storage
[9] = in Dimethyl sulfoxide, 14 days' storage
[10] = in N-Methylpyrrolidone, 14 days' storage
[11] = in Polyethylene glycol 300, 14 days' storage
[12] = in dimethyl sulfoxide or N-methylpyrrolidone

| Storage stability at +20° C. [2, 7] | Storage stability at +50° C. [2, 7] | Storage stability at −5° C. [2, 7] | Storage stability at +20° C. [2, 8] | Storage stability at +50° C. [2, 8] | Storage stability at −5° C. [2, 8] | Storage stability at +20° C. [2, 9] | Structure (SMILES) | Solubility [25° C.] ([1]; in 2-Ethylhexanol, 25° C.) | Solubility [25° C.] ([1]; in Butyl diglycol, 25° C.) | Solubility [25° C.] ([1]; in Butyl polyglycol, 25° C.) | Solubility [25° C.] ([1]; in Diethylene glycol, 25° C.) | Solubility [25° C.] ([1]; in Dimethyl sulfoxide, 25° C.) | Solubility [25° C.] ([1]; in Dipropylene glycol, 25° C.) | Solubility [25° C.] ([1]; in Glycerol, 25° C.) | Solubility [25° C.] ([1]; in N-Methylpyrrolidone, 25° C.) | Solubility [25° C.] [1, 4] | Solubility [25° C.] [1, 5] | Solubility [25° C.] ([1]; in Polyglycol D 21/150, 25° C.) | Solubility [25° C.] ([1]; in Polyglycol M 350, 25° C.) | Solubility [25° C.] [1, 6] | also measured |
| --- | --- | --- | --- | --- | --- | --- | --- | --- | --- | --- | --- | --- | --- | --- | --- | --- | --- | --- | --- | --- | --- |
| clear solution | clear solution | clear solution | clear solution | clear solution | clear solution | clear solution | O=c1[nH]sc2ccccc12 [1,2-Benzisothiazolin-3-one, 1,2-benzisothiazolin-3-one] | insoluble | 7% | 10% | 7% | 30% | 5% | insoluble | 7% | 8% | 7% | 4% | 9% | 8% | Storage stability at +50° C. [2, 9]: clear solution; Storage stability at −5° C. [2, 9]: clear solution; Storage stability at +20° C. [2, 10]: clear solution; Storage stability at +50° C. [2, 10]: clear solution; Storage stability at −5° C. [2, 10]: clear solution; Storage stability at +20° C. [2, 11]: clear solution; Storage stability at +50° C. [2, 11]: clear solution; Storage stability at −5° C. [2, 11]: clear solution; Active substance content at which solutions are stable ([3]; propylene glycol/water or diethylene glycol/water mixture, U.S. Pat. No. 4,188,376, higher concentrated solutions liable to precipitation): below 5 % by weight; Solubility in water ([3]; water): sparingly soluble |
| clear, yellowish | clear, yellowish | clear, colorless | clear, colorless | clear, colorless | clear, colorless | brown solution | N#CCCC(Br)(C#N)CBr (stereo not shown) [1,2-Dibromo-2,4-dicyanobutane, 1,2-dibromo-2,4-dicyanobutane] | insoluble | 30% | 40% | 20% | 45% | 10% | insoluble | 40% | 35% | 20% | 15% | 45% | 45% | Storage stability at +50° C. [2, 9]: black solution; Storage stability at −5° C. [2, 9]: clear, yellowish; Storage stability at +20° C. [2, 10]: brown solution; Storage stability at +50° C. [2, 10]: black solution; Storage stability at −5° C. [2, 10]: clear, yellowish; Storage stability at +20° C. [2, 11]: clear, yellowish; Storage stability at +50° C. [2, 11]: clear, yellowish; Storage stability at −5° C. [2, 11]: clear, colorless; Chemical stability [3, 12]: chemically unstable; Solubility [3, 12]: readily soluble; Solubility ([3]; in solvents such as glycerol or 2-ethylhexanol): sparingly soluble |
